How the values were obtained:
Format in all cases: in vivo
[1] = test system: Monochoria vaginalis; assay: Test Example 1: herbicidal activity, application before weed generation in submerged conditions (symbol C); conditions: application herbicide amount 320 g/ha
Method in brief: (§1)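 Mixed weed seeds sown in alluvial soil under 4 cm of water, with rice seedlings at the 2.5-leaf stage added. Same-day treatment: emulsion diluted to a set herbicide amount onto the water. Three weeks at 25–30 °C, then graded on a six-step scale.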

[2] = test system: Lolium multiflorum Lam.; assay: Test Example 4: herbicidal effect by soil treatment (symbol K); conditions: application herbicide amount 320 g/ha
Method in brief: (§2)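 Seeds were sown in sterilized diluvial soil, covered with about 1.5 cm of soil, and the soil surface was sprayed with a water-diluted emulsion of the compound at a predetermined rate. Plants grew in a greenhouse at 25° C. to 30° C.; effects were scored visually 3 weeks after application.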

[3] = test system: soybean; assay: Test Example 4: effect on crop by soil treatment (symbol d); conditions: application herbicide amount 320 g/ha
Method in brief: (§3)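 Plants are raised in a greenhouse (25° C. to 30° C.) from spot-sown seed, which sits under about 1.5 cm of sterilized diluvial soil in a box shared with weed species.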

[4] = test system: Lolium multiflorum Lam.; assay: Test Example 5: herbicidal effect by foliage application, plastic box (symbol K); conditions: 320 g/ha, 3 weeks after application
Method in brief: (§4)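 Leaf-applied emulsion, water-diluted to a preset herbicide dose, on two-week-old seedlings raised in a 25° C. to 30° C. greenhouse; injury rated at 3 weeks using earlier criteria.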

[5] = test system: Echinochloa oryzacola Vasing.; assay: Test Example 1: herbicidal activity, application before weed generation in submerged conditions (symbol A); conditions: application herbicide amount 320 g/ha
Method in brief: as §1

[6] = test system: Alopecurus myosuroides; assay: Test Example 5: herbicidal effect by foliage application, plastic box (symbol J); conditions: 320 g/ha, 3 weeks after application
Method in brief: as §4

[7] = test system: transplanted rice plant; assay: Test Example 1: effect on crop, application before weed generation in submerged conditions (symbol a); conditions: application herbicide amount 320 g/ha
Method in brief: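 Rice at 2.5 leaf stage transplanted into submerged soil (4 cm depth) sown with three weed species; herbicide applied before weed emergence.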

[8] = test system: Chenopodium album; assay: Test Example 4: herbicidal effect by soil treatment (symbol O); conditions: application herbicide amount 320 g/ha
Method in brief: as §2

[9] = test system: directly sowed rice plant; assay: Test Example 3: effect on crop by foliage application, Wagner pot (symbol b); conditions: application herbicide amount 320 g/ha
Method in brief: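 Plants are raised from seed in flooded paddy conditions: water stands 0.1–0.5 cm over alluvial soil, and the pot is kept in a greenhouse at 25–30 °C. Species sown are barnyardgrass (E. crus-galli var. crus-galli), Leptochloa chinensis, Cyperus difformis and rice.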

[10] = test system: rice; assay: Test Example 4: effect on crop by soil treatment (symbol b); conditions: application herbicide amount 320 g/ha
Method in brief: as §3

[11] = test system: Amaranthus retroflexus; assay: Test Example 5: herbicidal effect by foliage application, plastic box (symbol N); conditions: 320 g/ha, 3 weeks after application
Method in brief: as §4

[12] = test system: Abutilon theophrasti; assay: Test Example 5: herbicidal effect by foliage application, plastic box (symbol M); conditions: 320 g/ha, 3 weeks after application
Method in brief: as §4

[13] = test system: Digitaria ciliaris; assay: Test Example 5: herbicidal effect by foliage application, plastic box (symbol F); conditions: 320 g/ha, 3 weeks after application
Method in brief: as §4

[14] = test system: Echinochloa crus-galli var. crus-galli; assay: Test Example 5: herbicidal effect by foliage application, plastic box (symbol H); conditions: 320 g/ha, 3 weeks after application
Method in brief: as §4

[15] = test system: rice plant; assay: Test Example 5: effect on crop by foliage application, plastic box (symbol b); conditions: 320 g/ha, 3 weeks after application
Method in brief: (§5)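 Soil: sterilized diluvial. Container: plastic box, 21 × 13 cm, 7 cm deep. Sowing: spot-like, ~1.5 cm cover. Growth: greenhouse, 25° C. to 30° C.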

[16] = test system: corn; assay: Test Example 5: effect on crop by foliage application, plastic box (symbol c); conditions: 320 g/ha, 3 weeks after application
Method in brief: as §5

SMILES | Herbicidal effect grade, C: Monochoria vaginalis [1] | Herbicidal effect grade, K: Lolium multiflorum Lam. [2] | Effect on crop grade, d: soybean [3] | K: Lolium multiflorum Lam., herbicidal effect (criteria of Test Example 1) [4] | Herbicidal effect grade, A: Echinochloa oryzacola Vasing. [5] | J: Alopecurus myosuroides, herbicidal effect (criteria of Test Example 1) [6] | Effect grade on crop, a: transplanted rice plant [7] | Herbicidal effect grade, O: Chenopodium album [8] | effect on crop b (directly sowed rice plant), grade 0-5 [9] | Effect on crop grade, b: directly sowed rice plant [10] | N: Amaranthus retroflexus, herbicidal effect (criteria of Test Example 1) [11] | M: Abutilon theophrasti, herbicidal effect (criteria of Test Example 1) [12] | F: Digitaria ciliaris, herbicidal effect (criteria of Test Example 1) [13] | H: Echinochloa crus-galli var. crus-galli, herbicidal effect (criteria of Test Example 1) [14] | b: directly sowed rice plant, effect on crop (criteria of Test Example 1) [15] | c: corn, effect on crop (criteria of Test Example 1) [16] | other results
CON=C(C)CC1CC(OC(=O)N2CCOCC2)=C(c2c(C)cc(-c3ccc(Cl)cc3F)cc2C)C1=O (centres unmarked) [6-089] | 3 (Herbicidal ratio of 40% or higher and lower than 70%) | 3 (Herbicidal ratio of 40% or higher and lower than 70%) | 0 (Herbicidal ratio of 5% or lower (almost no effect)) | 4 (Herbicidal ratio of 70% or higher and lower than 90%) | 5 (Herbicidal ratio of 90% or more (almost completely withered)) | 5 (Herbicidal ratio of 90% or more (almost completely withered)) | 5 (Herbicidal ratio of 90% or more (almost completely withered)) | 0 (Herbicidal ratio of 5% or lower (almost no effect)) | 5 (Herbicidal ratio of 90% or more (almost completely withered)) | 0 (Herbicidal ratio of 5% or lower (almost no effect)) |  |  |  |  |  |  | 
CON=C(C)CC1CC(O)=C(c2c(F)cc(Br)cc2OC)C1=O (centres unmarked) [6-096] | 0 (Herbicidal ratio of 5% or lower (almost no effect)) | 5 (Herbicidal ratio of 90% or more (almost completely withered)) | 0 (Herbicidal ratio of 5% or lower (almost no effect)) | 5 (Herbicidal ratio of 90% or more (almost completely withered)) | 1 (Herbicidal ratio of 5% or higher and lower than 20%) | 4 (Herbicidal ratio of 70% or higher and lower than 90%) | 5 (Herbicidal ratio of 90% or more (almost completely withered)) | 0 (Herbicidal ratio of 5% or lower (almost no effect)) | 5 (Herbicidal ratio of 90% or more (almost completely withered)) | 5 (Herbicidal ratio of 90% or more (almost completely withered)) |  |  |  |  |  |  | 
CC#Cc1cc(C)c(C2=C(O)CC(CC(C)=O)C2=O)c(C)c1 (centres unmarked) [7-010] | 1 (Herbicidal ratio of 5% or higher and lower than 20%) | 5 (Herbicidal ratio of 90% or more (almost completely withered)) | 2 (Herbicidal ratio of 20% or higher and lower than 40%) | 5 (Herbicidal ratio of 90% or more (almost completely withered)) | 5 (Herbicidal ratio of 90% or more (almost completely withered)) | 5 (Herbicidal ratio of 90% or more (almost completely withered)) | 5 (Herbicidal ratio of 90% or more (almost completely withered)) |  | 5 (Herbicidal ratio of 90% or more (almost completely withered)) | 5 (Herbicidal ratio of 90% or more (almost completely withered)) | 1 (Herbicidal ratio of 5% or higher and lower than 20%) | 3 (Herbicidal ratio of 40% or higher and lower than 70%) | 5 (Herbicidal ratio of 90% or more (almost completely withered)) | 5 (Herbicidal ratio of 90% or more (almost completely withered)) | 5 (Herbicidal ratio of 90% or more (almost completely withered)) | 5 (Herbicidal ratio of 90% or more (almost completely withered)) | 
CC(=O)CC1CC(O)=C(c2c(C)cc(C)cc2Br)C1=O (centres unmarked) [7-011] | 0 (Herbicidal ratio of 5% or lower (almost no effect)) | 4 (Herbicidal ratio of 70% or higher and lower than 90%) | 0 (Herbicidal ratio of 5% or lower (almost no effect)) | 5 (Herbicidal ratio of 90% or more (almost completely withered)) | 2 (Herbicidal ratio of 20% or higher and lower than 40%) | 4 (Herbicidal ratio of 70% or higher and lower than 90%) | 1 (Herbicidal ratio of 5% or higher and lower than 20%) |  | 5 (Herbicidal ratio of 90% or more (almost completely withered)) | 5 (Herbicidal ratio of 90% or more (almost completely withered)) | 5 (Herbicidal ratio of 90% or more (almost completely withered)) | 4 (Herbicidal ratio of 70% or higher and lower than 90%) | 4 (Herbicidal ratio of 70% or higher and lower than 90%) | 5 (Herbicidal ratio of 90% or more (almost completely withered)) | 5 (Herbicidal ratio of 90% or more (almost completely withered)) | 2 (Herbicidal ratio of 20% or higher and lower than 40%) | 
CC(=O)CC1CC(O)=C(c2c(C)cc(OCC(F)(F)F)cc2C)C1=O (centres unmarked) [7-015] | 2 (Herbicidal ratio of 20% or higher and lower than 40%) | 5 (Herbicidal ratio of 90% or more (almost completely withered)) | 0 (Herbicidal ratio of 5% or lower (almost no effect)) | 5 (Herbicidal ratio of 90% or more (almost completely withered)) | 5 (Herbicidal ratio of 90% or more (almost completely withered)) | 5 (Herbicidal ratio of 90% or more (almost completely withered)) | 5 (Herbicidal ratio of 90% or more (almost completely withered)) |  | 5 (Herbicidal ratio of 90% or more (almost completely withered)) | 5 (Herbicidal ratio of 90% or more (almost completely withered)) | 0 (Herbicidal ratio of 5% or lower (almost no effect)) | 2 (Herbicidal ratio of 20% or higher and lower than 40%) | 5 (Herbicidal ratio of 90% or more (almost completely withered)) | 5 (Herbicidal ratio of 90% or more (almost completely withered)) | 5 (Herbicidal ratio of 90% or more (almost completely withered)) | 5 (Herbicidal ratio of 90% or more (almost completely withered)) | 
CON=C(C)C(=O)C1CC(O)=C(c2c(C)cc(C)cc2C)C1=O (centres unmarked) [8-002] | 0 (Herbicidal ratio of 5% or lower (almost no effect)) | 0 (Herbicidal ratio of 5% or lower (almost no effect)) | 0 (Herbicidal ratio of 5% or lower (almost no effect)) |  | 0 (Herbicidal ratio of 5% or lower (almost no effect)) |  | 0 (Herbicidal ratio of 5% or lower (almost no effect)) |  |  | 0 (Herbicidal ratio of 5% or lower (almost no effect)) |  |  |  |  |  |  | N: Amaranthus retroflexus, herbicidal effect grade [11]: 0 (Herbicidal ratio of 5% or lower (almost no effect)); M: Abutilon theophrasti, herbicidal effect grade [12]: 0 (Herbicidal ratio of 5% or lower (almost no effect)); F: Digitaria ciliaris, herbicidal effect grade [13]: 0 (Herbicidal ratio of 5% or lower (almost no effect)); H: Echinochloa crus-galli var. crus-galli, herbicidal effect grade [14]: 3 (Herbicidal ratio of 40% or higher and lower than 70%); K: Lolium multiflorum Lam., herbicidal effect grade [4]: 5 (Herbicidal ratio of 90% or more (almost completely withered)); J: Alopecurus myosuroides, herbicidal effect grade [6]: 4 (Herbicidal ratio of 70% or higher and lower than 90%); b: directly sowed rice plant, effect on crop grade [15]: 4 (Herbicidal ratio of 70% or higher and lower than 90%); b (directly sowed rice plant) effect on crop grade ([9]; Table 24): 0 (Herbicidal ratio of 5% or lower (almost no effect)); c: corn, effect on crop grade [16]: 0 (Herbicidal ratio of 5% or lower (almost no effect))

Source: patent publication US11000033B2, “Ketone or oxime compound, and herbicide” (NISSAN CHEMICAL CORPORATION, priority 2014, dated 2021)
